This note sets out measurements from US20220202811A1, “TREATMENT FOR RETINOIC ACID RECEPTOR-RELATED ORPHAN RECEPTOR Ɣ (RORƔ)-DEPENDENT CANCERS” (The Regents of the University of California, priority 2019, published 2022).

The structures appear in SMILES notation. Entries after “also recorded” stand apart in the source; their conditions may differ.

Experiment [1] concerns KP^f/fC organoids. The experiment is described as follows: KP^f/fC organoid culture assay. The experiment is classed as cell-based, mouse. On the procedure:
Organoids from REM2-KP^f/fC were passaged at ˜1:2 as previously described (Boj et al., 2015). Briefly, organoids were isolated using Cell Recovery Solution (Corning 354253), then dissociated using Accumax Cell Dissociation Solution (Innovative Cell Technologies AM105), and plated in 20 μl matrigel (BD Biosciences, 354230) domes on a pre-warmed 48-well plate. After incubation at 37° C. for 5 min, domes were covered with 300 μl PancreaCult Organoid Growth Media (Stemcell Technologies). […] Organoids were grown in the presence of vehicle or SR2211 for 4 days, then imaged and quantified, n=3 independent wells plated per dose per treatment group.
KP^f/fC organoid were derived from the REM2-KP^f/fC mice, a germline genetically engineered mouse model for pancreatic ductal adenocarcinoma with the genotype of Msi2^eGFP/Kras^LSL-G12D/+; Pdx^CRE/+; p53^f/f. Briefly, tumors from 10-12-week-old end-stage REM2-KP^f/fC mice were harvested and dissociated into a single cell suspension. Tumor cells were stained with FC block then 0.2 μg/10^6 cells anti-EpCAM APC (eBioscience). REM2+/EpCAM+ (stem) and REM2−/EpCAM+ (non-stem) cells were sorted, resuspended in 20 μl Matrigel (BD Biosciences, 354230), and plated as a dome in a pre-warmed 48-well plate. After incubation at 37° C. for 5 min, domes were covered with 300 μl PancreaCult Organoid Growth Media (Stemcell Technologies). Organoids were imaged and quantified 6 days later. All images were acquired on a Zeiss Axiovert 40 CFL. Organoids were counted and measured using ImageJ 1.51s software.
The derived KP^f/fC organoid were maintained and passaged at ˜1:2. Briefly, organoids were isolated using Cell Recovery Solution (Corning 354253), then dissociated using Accumax Cell Dissociation Solution (Innovative Cell Technologies AM105), and plated in 20 μl Matrigel (BD Biosciences, 354230) domes on a pre-warmed 48-well plate. After incubation at 37° C. for 5 min, domes were covered with 300 μl PancreaCult Organoid Growth Media (Stemcell Technologies).
About 4,000 organoids from each of the non-germline and germline mouse models were plated as single cells in multi-well plates, as described above, and treated with JTE-151 for 4 days (FIG. 48). Organoid number and size were analyzed after treatment. […] In the quantification, different doses of JTE-151 were plotted along the horizontal axis, and the volume of organoids was expressed as relative to control along the vertical axis. […] Organoid volume was then analyzed. Different doses of JTE-151 were plotted along the horizontal axis, and the vertical axis represents relative organoid volume to control.

The test system of experiment [2] is primary patient-derived PDX1356 organoids. The experiment is described as follows: PDX1356 organoid assay. It counts as cell-based, human. On the procedure:
PDX1535 organoids were derived from a patient of pancreatic cancer. Primary patient organoids were established by digesting patient-derived xenografts for 1 hour at 37° C. in RPMI containing 2.5% FBS, 5 mg/ml Collagenase II, and 1.25 mg/ml Dispase II, followed by passage through a […] mesh filter. Cells were plated at a density of 1.5×10^5 cells per 50 μl Matrigel. After domes were solidified, growth medium was added as follows: RPMI containing 50% Wnt3a conditioned media, 10% RSpondin1-conditioned media, 2.5% FBS, 50 ng/ml EGF, 5 mg/ml Insulin, 12.5 ng/ml hydrocortisone, and 14 μM Rho Kinase Inhibitor. After establishment, organoids were passaged and maintained. Briefly, organoids were isolated using Cell Recovery Solution (Corning 354253), then dissociated into single cell suspension with TrypLE Express (ThermoFisher 12604) supplemented with 25 μg/ml DNase I (Roche) and 14 μM Rho Kinase Inhibitor (Y-27632, Sigma). Cells were split 1:2 into 20 μl domes plated on pre-warmed 48-well plates. Domes were incubated at 37° C. for 5 min, then covered with human complete organoid feeding media without Wnt3a-conditioned media.
As shown in FIGS. 65-66, the anti-cancer effect of JTE-151 was also tested using the organoid assay on primary patient-derived PDX1356 pancreatic cancer cells. […] The volume of organoids was expressed as relative to control.

The subject of experiment [3] is primary patient-derived organoids. The experiment is described as follows: compilation of primary patient-derived organoids. It counts as cell-based, human.
Experiment [4] relates to primary patient-derived PDX1424 cancer cells. Put plainly: PDX1424 xenografts in mice. The experiment is classed as in vivo, human. An excerpt:
FIG. 45 is a compilation of all data from mice bearing PDX or FG cancer xenographs, including PDX1424, PDX1444, and FG.
Finally, the impact of JTE-151 was examined in vivo on mice bearing primary patient-derived pancreatic cancer xenografts (FIGS. 70-78). […] FIGS. 70-72 show 3 rounds of treatment in an experiment using mice bearing PDX1356 xenographs. The horizontal axis of the first panel in each of FIGS. 70-72 represents days of treatment, and the vertical axis represents tumor volume. The horizontal axis of each of the remaining panels represents the target (vehicle vs. JTE-151 mouse), and the vertical axis represents the specified measurement. JTE-151 was given at the regimen as specified in the figures. For example, in the first round (FIG. 70), JTE-151 was given at 90 mg/kg body weight once per day for the first 25 days, then twice per day from day 26 though day 40.
Two other primary patient-derived xenografts, PDX1535 (FIGS. 74 and 75) and PDX1424 (FIGS. 76 and 77), were tested using JTE-151 at 90 mg/kg once per day. […] Considering the reduced tumor mass and cell numbers, the absence of a significant change in tumor volume may be due to necrotic cells that remained for a while post drug treatment.

Experiment [5] deals with tumor-bearing KP^f/fC mice. Put plainly: tumor-bearing KP^f/fC mice in vivo (AZD-0284, JTE-151). Further details: species or system mouse.
Setting [6] is: 30 mg/kg JTE-151 once daily for about 3 weeks (FIG. 52).
Where [7] appears, read: 90 mg/kg JTE-151, 3 weeks, compilation (FIG. 57).
[8] abbreviates: 90 mg/kg JTE-151, 3 weeks, individual experiments (FIGS. 53-55).
Where [9] appears, read: JTE-151 at either 30 mg/kg or 90 mg/kg, 3 weeks (FIG. 58).
Where [10] appears, read: AZD-0284 90 mg/kg once daily + gemcitabine 25 mg/kg once weekly, 3 weeks.

`Cc1ccc(NC(=O)C[C@H](CCC(=O)O)c2noc([C@H]3C[C@@H](CC(C)(C)C)C3)c2C2CC2)c(Cl)c1` [JTE-151, (4S)-6-[(2-chloro-4-methylphenyl)amino]-4-{4-cyclopropyl-5-[cis-3-(2,2-dimethylpropyl)cyclobutyl]isoxazol-3-yl}-6-oxohexanoic acid]: the organoid volume result in experiment [1] (JTE-151 at 0.003 μM and 0.03 μM) is “reduced organoid volume, although not at a statistically significant level”; in experiment [2] (3 μM JTE-151 + 0.05 nM gemcitabine), “visibly reduced; also recorded: inhibited”; in experiment [2] (3 μM JTE-151 alone) it was “visibly reduced; also recorded: inhibited”. Besides, the organoid growth result in experiment [1] (JTE-151 at 0.3 μM, 3 μM, 6 μM, and 9 μM) was “significantly inhibited”; in experiment [3] (JTE-151 at 0.3 μM and more so at 3 μM, PDX1356, PDX1535, PDX202, PDX204 (FIG. 68)) it was “significantly inhibited”. Further, the “organoid growth in volume” value in experiment [2] (0.3 μM JTE-151 + 0.05 nM gemcitabine) and in experiment [2] (0.3 μM JTE-151 alone) was “visibly decreased; also recorded: inhibited” each time. The “EpCam+ tumor epithelial cells” value in experiment [4] (JTE-151 90 mg/kg once per day) is “trend of decreased”; in experiment [5] (setting [6]) it was “decrease in EpCam+ tumor epithelial cells was statistically significant”; in experiment [5] (setting [7]), “loss”; in experiment [5] (setting [8]), “decreased”; in experiment [5] (setting [9]), “loss”. Besides, the “EpCam+/CD133+ tumor stem cells” value in experiment [4] (JTE-151 90 mg/kg once per day) was “trend of decreased”; in experiment [5] (setting [8]) it was “decreased”. The total cell counts result in experiment [4] (JTE-151 90 mg/kg once per day) is on record as “trend of decreased”. Moreover, the figures for the tumor mass result in experiment [4] (JTE-151 90 mg/kg once per day) and in experiment [5] (JTE-151 at 90 mg/kg (FIG. 58)) were “trend of decreased” and “significantly reduced”, respectively. Besides, in experiment [4] (JTE-151 90 mg/kg once per day (FIG. 77)), the tumor growth rate result was “slower”. The cell number result in experiment [5] (setting [6]), in experiment [5] (setting [7]) and in experiment [5] (setting [9]) was “reduced” in each case. Moreover, in experiment [5] (120 mg/kg JTE-151 regimen, mice that responded), the “change of cell number in the tumor” value is “varied”.
Regarding `OC(c1ccc(-c2ccc(CN3CCN(Cc4ccncc4)CC3)cc2)c(F)c1)(C(F)(F)F)C(F)(F)F` [SR2211], the organoid formation entry in experiment [1] (SR2211 vs vehicle) is on record as “decreased”.
In the case of `CC(=O)N1Cc2cc(S(C)(=O)=O)ccc2[C@@H]1C(=O)Nc1ccc(C(O)(C(F)(F)F)C(F)(F)F)cc1` [AZD-0284], the “decrease in organoid volume compared to control” value in experiment [1] (3 μM AZD-0284 + 0.025 nM gemcitabine) was 3.72 fold; in experiment [1] (6 μM AZD-0284 + 0.025 nM gemcitabine), 5.81 fold; in experiment [1] (12 μM AZD-0284 + 0.025 nM gemcitabine) it was 10.53 fold. Further, the “organoid growth in volume” value in experiment [1] (3 μM AZD-0284 in combination with 0.02 nM gemcitabine) is reported as “visibly decreased; also recorded: inhibited”. Also, the organoid volume result is “visibly reduced; also recorded: inhibited” in experiment [1] (6 μM AZD-0284 alone); “visibly reduced; also recorded: inhibited” in experiment [1] (6 μM AZD-0284 and 0.025 nM gemcitabine combination); “significant reduction; also recorded: effectively inhibited” in experiment [2] (3 μM AZD-0284 + 0.05 nM gemcitabine); “significant reduction; also recorded: effectively inhibited” in experiment [2] (3 μM AZD-0284 alone); “significant reduction; also recorded: effectively inhibited” in experiment [2] (6 μM AZD-0284 + 0.05 nM gemcitabine); “significant reduction; also recorded: effectively inhibited” in experiment [2] (6 μM AZD-0284 alone). Also, the organoid growth result in experiment [1] (AZD-0284 alone, 6 μM or 12 μM (FIG. 32)) was “significant inhibitory effect”; in experiment [3] (AZD-0284 at 3 μM and more so at 6 μM, PDX1356 and PDX1535 (FIG. 40)), “significantly inhibited”. Moreover, the “EpCam+ tumor epithelial cells” value is “significant reduction” in experiment [4] (60 mg/kg AZD-0284 for 3 weeks), “loss” in experiment [5] (90 mg/kg AZD-0284 alone) and “loss” in experiment [5] (setting [10]). The “EpCam+/CD133+ tumor stem cells” value in experiment [4] (60 mg/kg AZD-0284 for 3 weeks) is listed as “significant reduction”; in experiment [5] (90 mg/kg AZD-0284 alone) it was “loss”; in experiment [5] (setting [10]), “loss”. For the same molecule, the cell number entry in experiment [5] (90 mg/kg AZD-0284 alone) and in experiment [5] (setting [10]) was “lower” in each case. Besides, the tumor mass result in experiment [5] (90 mg/kg AZD-0284 alone) was “lower”.
